Experimental data published in patent publication US7045495B2 (Sloan-Kettering Institute for Cancer Research, priority 1996, dated 2006).
Where two headings read alike, the source gives them in different places.

What was measured:
[1] = phase I trial safingol with doxorubicin: plasma pharmacokinetics; type: in vivo, patients; conditions: human, intravenous
Method: (iii) Safingol pharmacokinetics appear linear with increasing dose: The pharmacokinetics of patients treated with safingol and DOX at 45 mg/m^2 is shown below: […]

creatinine phosphokinase = conditions: read-out: concentration for 50% inhibition of creatinine phosphokinase; safingol; cited from earlier work
[2] = parameters: species or system patients; conditions: in vivo
Method: Individual patients could receive up to six cycles of treatment with the same dose of safingol and doxorubicin (DOX) every 21 days, until signs of tumor progression or unacceptable toxicity occurs, or until the patient's cumulative life-time dose of doxorubicin exceeds 400 mg/m^2 with an additional cycle of treatment. Prior DOX therapy was allowed up to a dose of 280 mg/m^2 as long as the left ventricular ejection fraction was>50%. The starting dose of safingol was 15 mg/m^2.
In fact the white blood count nadirs have increased with increasing safingol dose. Dose escalation above 120 mg/m^2 is planned.
This was associated with no changes in reticulocyte count, no evidence of hemolysis on the peripheral smear, no “pink” discoloration to the plasma, and no evidence or urine hemosiderin. This was believed to be related to relatively poor venous access which only became apparent on the first day of therapy. The patient was retreated according to applicants, protocol criteria for grade I hemolysis which included infusion of safingol through a central vein and at one half the concentration (twice the total volume but the same total dose). Under these conditions the patient has experienced no further evidence of hemolysis.

With `CCCCCCCCCCCCCCC[C@H](O)[C@@H](N)CO` [safingol, L-threo-dihydrosphingosine] the Cmax ([1]; 15 mg/m2, dose level 15 mg/m^2) was 199 ng/mL, the AUC ([1]; 15 mg/m2, dose level 15 mg/m^2, read-out: AUC without DOX (first column)) was 168 ng·h/mL and the AUC ([1]; 15 mg/m2, dose level 15 mg/m^2, read-out: AUC without DOX (second column)) was 161 ng·h/mL. It also gave a Cmax ([1]; 30 mg/m2, dose level 30 mg/m^2) of 336 ng/mL, an AUC ([1]; 30 mg/m2, dose level 30 mg/m^2, read-out: AUC without DOX (first column)) of 501 ng·h/mL and an AUC ([1]; 30 mg/m2, dose level 30 mg/m^2, read-out: AUC without DOX (second column)) of 428 ng·h/mL. For the same molecule, the Cmax ([1]; 60 mg/m2, dose level 60 mg/m^2) was 422 ng/mL, the AUC ([1]; 60 mg/m2, dose level 60 mg/m^2, read-out: AUC without DOX (first column)) was 531 ng·h/mL and the AUC ([1]; 60 mg/m2, dose level 60 mg/m^2, read-out: AUC without DOX (second column)) was 501 ng·h/mL. It also gave a Cmax ([1]; 120 mg/m2, dose level 120 mg/m^2) of 988 ng/mL, an AUC ([1]; 120 mg/m2, dose level 120 mg/m^2, read-out: AUC without DOX (first column)) of 1230 ng·h/mL and an AUC ([1]; 120 mg/m2, dose level 120 mg/m^2, read-out: AUC without DOX (second column)) of 1230 ng·h/mL. The IC50 (creatinine phosphokinase) was greater than 218 µM, the “dose limiting hematologic toxicity” value [2] was “no-dose limiting hematologic toxicity” and the hemolysis [2] was “only one patient has experienced a grade I hemolysis”.
